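Exposure lasted 48 hours, with cells grown in 96-well plates and compounds tested at five concentrations. GI50 = concentration required for 50% inhibition of growth.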 Calls of active or inactive are those of the source. Cut-off read from the data, not from the text of the source: active = GI50 up to about 1.1 µM and inactive = higher.
Key:
Experiment in all cases: NCI anticancer screen, dose series, 48 h
K562 = system: K562
TK-10 = system: TK-10
SF-539 = system: SF-539
OVCAR-3 = system: OVCAR-3
NCI-H460 = system: NCI-H460
MDA-MB-231 = system: MDA-MB-231
M14 = system: M14
SW-620 = system: SW-620
SNB-19 = system: SNB-19
ACHN = system: ACHN
UO-31 = system: UO-31
HOP-62 = system: HOP-62
MDA-MB-435 = system: MDA-MB-435
KM12 = system: KM12
HCT-116 = system: HCT-116
HCT-15 = system: HCT-15
NCI-H226 = system: NCI-H226
CCRF-CEM = system: CCRF-CEM
RXF 393 = system: RXF 393
NCI-H23 = system: NCI-H23

Measured: GI50

C[Si](C)(C)OC1c2[nH]c3ccccc3c2CN2C(=O)CCC12 (stereo unspecified)
inactive: K562 > 100 µM | TK-10 > 100 µM | SF-539 > 100 µM | OVCAR-3 > 100 µM | NCI-H460 > 100 µM | MDA-MB-231 > 100 µM | M14 > 100 µM | SW-620 > 100 µM | SNB-19 > 100 µM | ACHN > 100 µM | UO-31 > 100 µM | HOP-62 > 100 µM | MDA-MB-435 > 100 µM | KM12 > 100 µM | HCT-116 > 100 µM | NCI-H226 > 100 µM
> 100 µM: HCT-15

C[C@@H]1[C@@H]2[C@@H](C=C3C4CCC5Cc6nc7c(nc6C[C@@]5(C)C4C[C@H](O)[C@]32CO)CC2CCC3C4=C[C@H]5O[C@@]6(OC(C)(CO)C[C@@H]6O)[C@H](C)[C@@]5(O)[C@]4(C)[C@@H](O)CC3[C@]2(C)C7)O[C@]12CCC(C)(C)O2 (stereo partly specified)
0.135 µM: HCT-15
active: K562 0.0164 µM | TK-10 0.473 µM | SF-539 0.000764 µM | OVCAR-3 0.388 µM | NCI-H460 0.0101 µM | CCRF-CEM 0.0117 µM | M14 0.0182 µM | RXF 393 0.00082 µM | SW-620 0.0225 µM | SNB-19 0.111 µM | ACHN 0.171 µM | UO-31 0.0575 µM | HOP-62 0.00311 µM | NCI-H23 0.0328 µM | KM12 0.057 µM | HCT-116 0.0306 µM | NCI-H226 0.0225 µM

Cc1c(C#N)c(N)n(C2OC(CO)C(O)C(O)C2O)c(=S)c1C#N (stereo unspecified)
> 100 µM: HCT-15
inactive: K562 > 100 µM | TK-10 > 100 µM | SF-539 > 100 µM | OVCAR-3 > 100 µM | NCI-H460 > 100 µM | MDA-MB-231 > 100 µM | CCRF-CEM > 100 µM | M14 > 100 µM | RXF 393 > 100 µM | SW-620 > 100 µM | SNB-19 > 100 µM | ACHN > 100 µM | UO-31 > 100 µM | HOP-62 > 100 µM | NCI-H23 > 100 µM | KM12 > 100 µM | HCT-116 > 100 µM | NCI-H226 > 100 µM

CN1CC[C@@]2(c3cccc(O)c3)CC(=O)/C(=C/c3ccc(Cl)c(Cl)c3)[C@H]1C2
1.98 µM: HCT-15
inactive: TK-10 14 µM | OVCAR-3 2.23 µM | NCI-H460 2.11 µM | CCRF-CEM 2.26 µM | M14 2.25 µM | RXF 393 2.66 µM | SW-620 1.68 µM | SNB-19 3.26 µM | ACHN 1.67 µM | UO-31 2.07 µM | HOP-62 2.67 µM | MDA-MB-435 1.41 µM | NCI-H23 3.4 µM
active: K562 0.433 µM

O=C(Nc1cccc(C(F)(F)F)c1)C(=O)C(C(=O)c1ccc2ccccc2c1)C1OC(=O)c2ccccc21 (stereo unspecified)
8.13 µM: HCT-15
inactive: K562 5.38 µM | TK-10 22.6 µM | SF-539 2.23 µM | OVCAR-3 16 µM | NCI-H460 5.61 µM | CCRF-CEM 3.18 µM | M14 13 µM | RXF 393 4.16 µM | SW-620 6.25 µM | SNB-19 6.25 µM | ACHN 12.6 µM | UO-31 12.4 µM | HOP-62 11.5 µM | MDA-MB-435 17.4 µM | NCI-H23 6.46 µM | KM12 12.2 µM | HCT-116 6.82 µM | NCI-H226 2.89 µM

N#CCCn1c(S)nnc1CCC(=O)Nc1ccc(Cl)cc1Cl
> 100 µM: HCT-15
inactive: K562 41.4 µM | TK-10 > 100 µM | SF-539 > 100 µM | OVCAR-3 > 100 µM | NCI-H460 > 100 µM | CCRF-CEM 52.6 µM | M14 > 100 µM | RXF 393 > 100 µM | SW-620 > 100 µM | SNB-19 > 100 µM | ACHN > 100 µM | UO-31 > 100 µM | HOP-62 > 100 µM | NCI-H23 > 100 µM | KM12 > 100 µM | HCT-116 > 100 µM | NCI-H226 > 100 µM
